Experimental data from US7629383B2, “Double esters” (Drug Discovery Laboratory AS, priority 2001, dated 2009).
Like-named read-outs stand apart in the source and are kept apart here.

Legend:
[1] = Clinical testing of creams, indication skin cancer; format: in vivo, human; conditions: one person, skin cancer in the face
Procedure: A person with skin cancer in the face (one lesion above the nose) was treated with photodynamic therapy (5-ALA methyl ester, available from Photocure ASA, Oslo, Norway). The outcome of the treatment was very good. After about one year they observed a new lesion in the same area.

[2] = tested on: Staphylococcus aureus; test: Antibacterial effect on agar gels; format: cell-based; conditions: same amount (10 mg)
Procedure: The antibacterial effects of azelaic acid and the azelaic acid derivatives of Examples 7, 12 and 13 on Staphylococcus aureus were tested on agar gels.

[3] = cited from earlier work

Compound: COC(=O)CCC(=O)CN [5-ALA methyl ester]
- outcome of photodynamic therapy [1]: very good

Compound: CCOC(=O)OC(C)OC(=O)CCCCCCCC(=O)OC(C)OC(=O)OCC (centres unmarked) [Example 7, bis-[1-[ethoxycarbonyloxy]-ethyl]nonanedioate]
- inhibiting zones on agar gel [2]: large inhibiting zones

Compound: CCCC(=O)OCOC(=O)CCCCCCCC(=O)OCOC(=O)CCC [Example 12, bis-(butanoyloxymethyl)nonanedioate]
- inhibiting zones on agar gel [2]: large inhibiting zones

Compound: CCCCCC(=O)OCOC(=O)CCCCCCCC(=O)OCOC(=O)CCCCC [Example 13, bis-(hexanoyloxymethyl) nonanedioate]
- inhibiting zones on agar gel [2]: large inhibiting zones

Compound: O=C(O)CCCCCCCC(=O)O [azelaic acid, nonanedioic acid]
- inhibiting zones on agar gel [2]: no inhibiting effect
- dose absorbed ([3]; administered orally): about 60%
- dose absorbed ([3]; administered topically): about 3.6%
- absorbed azelaic acid excreted into the urine ([3]; within 12 hours): 60%
